Read-outs that look alike come from different tables or passages of the source.
Columns and labels:
[1] = tested on: phorbol ester receptor of HL-60 cells (protein kinase C); assay: Competition for [3H]phorbol dibutyrate binding by HL-60 cells; parameters: species or system human; details: 12 nM [3H]phorbol dibutyrate, 1 h at 37°; read-out: 50% inhibition of [3H]phorbol dibutyrate binding
Procedure: Competitive binding assays were conducted as described by Goodwin and Weinberg (J. Clin. Invest, 70, 699-706, 1982 and Ebling et al (ibid.). Approximately 1×10^6 cells/ml were incubated with 12 nM [^3 H]phorbol dibutyrate (8.3 Ci/mmol) and varying concentrations of sphinganine (1:1 with BSA) for 1 h at 37°. The cells were recovered on Millipore filters, washed, and counted. The data were corrected for nonspecific binding by subtracting the cpm obtained in the presence of 300 nM PMA.

HL-60 cells [2] = assay: [3-3H]sphinganine uptake and metabolism by HL-60 cells; format: in vitro ADME, human
Procedure: Approximately 1×10^6 HL-60 cells in 1 ml of medium were mixed with an equal volume of medium containing 2.5 μm [3-^3 H]sphinganine (equimolar with BSA). After varying time intervals, an aliquot of the cells was removed and counted and a portion was extracted as described below. The extracts were applied to Silica gel H plates and developed in CHCl3 :methanol: 2N NH4 OH (40:10:1, v/v/v), air dried, sprayed with Amplify (Amersham), and subjected to fluorography.

HL-60 cells [3] = assay: Dioctanoylglycerol-induced attachment of HL-60 cells; format: cell-based; details: Homo sapiens
Procedure: When 1,2-dioctanoylglycerol was used, the cells were treated essentially as described by Ebling et al Proc. Natl. Acad. Sci. U.S.A. 82, 815-819, 1985. Sphinganine was added to the cells, then dioctanoylglycerol in 1 μl of ethanol to yield 100 μM, followed by additional maintenance additions of 20 μm diacylglycerol every 2 h for 12 h.

[4] = Neutrophil viability (Trypan Blue exclusion, LDH release); format: cell-based; details: human, neutrophils, 50 μM sphinganine, 1.2×10^7 cells/ml
Procedure: Cell viability was assessed by two criteria: Trypan Blue exclusion and release of the cytosolic enzyme, lactate dehydrogenase (LDH). LDH activity was monitored by following the oxidation of NADH at 340 nm. […] Trypan Blue exclusion was determined microscopically.

Y-1 tumor cell line = assay: ACTH stimulation of steroidogenesis in the Y-1 tumor cell line; format: cell-based; details: unpublished studies
[5] = tested on: phorbol ester binding site (protein kinase C) of neutrophils; assay: Cellular [3H]-phorbol dibutyrate binding in neutrophils; parameters: species or system human; details: 50 μM; 15 min
Procedure: Neutrophils (1×10^8 cells/ml) were preincubated with the indicated concentration of sphinganine, palmitic acid, or ceramide for five minutes prior to the addition of 50 nM (final concentration) of [^3 H]-phorbol dibutyrate (specific activity of 8.3 Ci/mMole). The cells were incubated an additional 15 min. in a shaking waterbath at 37° C. The incubation mixtures were filtered using an Amicon filtration manifold model VFM-III and washed 5 times with 5 mls of ice-cold PBS-glucose. The filters were counted using a Beckman LS7000 scintillation counter.

protein kinase M = assay: Activity of the catalytic domain (protein kinase M); format: biochemical, rat
Procedure: Under these conditions, the bulk concentration of PS was 260 μM and diC18:1 was 86 μM. Therefore, 50% inhibition (100 μM) occurred on a molar basis equivalent to [diC18:1 ] or to 0.4 of [PS]. The potency of sphingosine inhibition was markedly affected by the number of Triton X-100 mixed micelles containing 7 mol % PS and 1 mol % diC18:1present in the assay (FIG. 11A). Thus, the effect of sphingosine was subject to surface dilution. When the data are expressed as mol %, (sphingosine:Triton X-100), sphingosine inhibition at four different levels of Triton X-100 mixed micelles (containing PS and diC18:1) was identical (FIG. 11B) implying that it is the number of sphingosine molecules present in each mixed micelle that determines the potency and not the absolute concentration. For surface active amphipathic molecules, the expression of inhibitor potencies must be relative to the amount of surface (micelles in this case) as bulk concentrations are misleading. […] To test this hypothesis, the catalytic domain (protein kinase M) was generated by proteolysis of protein kinase C^2. The activity of this catalytic domain which is independent of Ca^2+, phospholipid and DAG/phorbol esters was not inhibited by sphingosine (FIG. 10).
^2 The catalytic domain was generated by trypsin treatment of purified protein kinase C; and purified by Ultrogel AcA-44 molecular sieve chromatography. […]

human platelets = assay: [3H]PDBu binding to human platelets
Procedure: Human platelets, prepared as described above, were suspended at a concentration of 2.5×10^8 platelet/ml. 50 μl of the platelets were then incubated for five minutes with the indicated concentration of sphingosine in Eppendorf microfuge tubes. Sphingosine was prepared in 50% ethanol at a concentration 100-fold the final concentration so that ethanol was kept at 0.5%. [^3 H]PDBu was added to 10 nM and incubated with the platelets at 37° for 10 minutes. The samples were then filtered on Whatman GF/C filters pre-washed with 5 ml of modified Tyrode's buffer containing 0.1% bovine serum albumin, washed with 10 ml of the same buffer, dried, and counted in 10 ml of Aquasol II in an LKB beta counter. Non-specific binding was determined in the presence of 1 μM unlabelled PDBu and subtracted from the total counts to yield the specific binding.

[6] = tested on: protein kinase C-induced phosphorylation of the 40 KDa polypeptide; assay: 40K (40 kDa) protein phosphorylation in human platelets; format: cell-based
Procedure: They were then suspended in modified Tyrode's buffer to a concentration of 2.5×10^8 platelets/ml.
^32 Pi at 0.2 mCi/ml was added to the platelet suspension and labelling was allowed to proceed for 75 minutes at 37° C., after which the platelets were pelleted at 600×g for 10 minutes and resuspended in Tyrode's buffer to the same concentration. They were then aliquoted in Eppendorf microfuge tubes and preincubated at 37° C. for 5 minutes with the varying concentrations of sphingosine. Platelets were then stimulated with either 5 μM dioctanoylglycerol (added as an ethanol solution with the final concentration of ethanol 0.5%), 10 μM TPA, or 1 unit/ml thrombin. The reactions were stopped after 30 seconds by the addition of an equal volume of 2× sample buffer, and the samples were then boiled for 3 minutes. […] Gels were subsequently fixed in water/methanol/acetic acid (60:30:10), dried, and autoradiographed.

Row | IC50 [1] [µM] | time in which approximately half of the sphinganine was taken up from the medium by the cells (HL-60 cells [2]; [3H]sphinganine, HL-60 cells, 37°) [h] | free [3H]sphinganine associated with the cells (HL-60 cells [2]; day 2) [nmol] | free [3H]sphinganine associated with the cells (HL-60 cells [2]; day 3) [nmol] | IC50 (HL-60 cells [3]; 100 μM dioctanoylglycerol, maintenance doses 20 μM every 2 h, read-out: concentration reducing dioctanoylglycerol-induced adherence by 50%) [µM] | SMILES | activity at 1 µM (HL-60 cells [3]; 1.0 μM sphinganine, compared to cells treated with diacylglycerol only, read-out: % Viable cells attached) [%] | activity at 2.5 µM (HL-60 cells [3]; 2.5 μM sphinganine, compared to cells treated with diacylglycerol only, read-out: % Viable cells attached) [%] | activity at 5 µM (HL-60 cells [3]; 5.0 μM sphinganine, compared to cells treated with diacylglycerol only, read-out: % Viable cells attached) [%] | viability at 50 µM ([4]; read-out: cellular LDH retained) [%] | viability at 50 µM ([4]; read-out: viability by Trypan Blue exclusion) [%] | effect on the ACTH-stimulated steroidogenic rate (Y-1 tumor cell line) | displacement of [3H]-phorbol dibutyrate [5] [%] | inhibition of the catalytic domain (protein kinase M) (protein kinase M) | inhibition of [3H]PDBu binding to whole human platelets (human platelets) | inhibition of thrombin-induced 40K phosphorylation ([6]; 25 μM sphingosine) | inhibition of thrombin-induced 40K phosphorylation ([6]; concentrations as low as 10 μM) | inhibition of TPA and diC8-induced 40K phosphorylation ([6]; data not shown) | sphingosine required for complete inhibition (mol % sphingosine:phospholipids) ([6]; platelet 40K phosphorylation, similar to in vitro inhibition of protein kinase C)
1 | ~15 | ≤ 6 | 0.07 | 0.06 | ~5 | CCCCCCCCCCCCCCC[C@@H](O)[C@@H](N)CO (relative stereo) [Sphinganine, erythro-dihydrosphingosine] | 70 ± 32 | 63 ± 21 | 50 ± 25 | > 96 | > 95 | did not affect | 60 |  |  |  |  |  | 
2 |  |  |  |  |  | CCCCCCCCCCCCC/C=C/[C@@H](O)[C@@H](N)CO [sphingosine] |  |  |  |  |  |  |  | not inhibited | able to inhibit this binding | nearly complete inhibition | Partial inhibition | inhibited | 3-5 mol %
